The text below walks through data of patent publication US20230331674A1 (priority 2020, published 2023).

Common to all, as to assay type: in vivo, dog
Data set [1] relates to dogs with canine cognitive dysfunction. The experiment in a line: CADES score questionnaire in dogs with cognitive dysfunction. The conditions noted are these: for Average CADES score: treated dogs. From the text:
Thirty-one dogs older than 10 years were screened for the study. Of these, 14 were excluded from the study because of different abnormal findings observed during the initial examination, including 3 dogs with brain tumor confirmed with the computed tomography (CT); 2 dogs with markedly elevated alanine aminotransferase (ALT) and serum alkaline phosphatase (ALP); 3 dogs with renal disease; 3 dogs with marked hearing and visual deficit; 2 dogs with both renal disease and moderately elevated ALT and ALP and 1 dog with eclampsia.
After the owner's consent, dogs were subjected to physical and neurological examination including body weight and body condition score, blood results for complete blood count (CBC), clinical chemistry, urinanalysis, the canine dementia scale (CADES) questionnaire, and two clinical cognitive tests [food searching test (FST) and problem solving test (PST)]. After these thorough examinations, the decision was made whether the dogs were included in the study. Dogs with systemic illnesses that could interfere with their cognitive function were excluded from the study.
Only dogs aged 10 years or older were included in the study. […] Dogs were not treated with any other medications for cognitive impairment. However, dogs that were included in the control group were allowed to be feed with the commercial therapeutic diet for cognitive decline, if they were on it at least 8 weeks before entering the study and if they maintained the same dietary protocol for the duration of the study. Dogs in the treatment group that were on a diet meant to treat cognitive decline were required to be off the diet for at least 30 days before enrollment and during the duration of the study.
(§1) The study design was following the guidelines of the European Directive 2010/63/EU. Before starting the experimental therapy with their pets, each owner was required to sign an informed consent form. According to The Administration of the Republic of Slovenian for Food Safety, Veterinary and Plant Protection, no ethical permission was needed as the study was performed on clinical patients with the owners' consents. In total, seventeen dogs showing signs of cognitive dysfunction were included in the study. […] Upon enrollment, dogs were physically and neurologically examined, blood and urine analysis were performed. Additionally, a questionnaire based on a modified CADES scale score and two clinical tests (FST and problem PST) for assessing their cognitive function were performed. Dogs were randomly allocated to one of the following two groups: Control group (n=7) without treatment and the treatment group (n=10). Questionnaire and cognitive tests were performed every 2 months on all the dogs included in the study.
Owners were observing their dog's health status daily during the duration of the study. In case of any serious or abnormal observations, they had to contact the participating veterinarian. Physical and excessive neurological examinations (behavior and consciousness, cranial nerves, gait and posture, postural reactions, spinal reflexes) were carried out by the veterinarian and included an assessment of all body systems. A full spectrum of neurobehavioral symptoms including apathy, anxiety, staring blankly, confusion or aimless walking, vocalization during the night, aggression, signs of compulsive and stereotyped behavior, etc. were obtained by questioning the pet owners. Dogs were monitored during examinations. Their responses to familiar and unfamiliar people and objects were observed. Exams were performed at the beginning of the study and every two weeks for the first two months if dogs were included in the treatment group. Thereafter, exams were performed every two months for the duration of the study (at least for 6 months). The control group was examined only every 2 months until the end of the study (for at least 6 months).
Changes in behavior of all dogs were evaluated by the same veterinarian. […]

Data set [2] shares this test system. The experiment in a line: Cognitive tests (food searching test FST and problem solving test PST) in dogs with cognitive dysfunction. More on the design: Problem solving test scores (sum of FST and PST test), individual patient: scale not given here. The conditions noted are these: for Problem solving score (sum of FST and PST), group mean: treated dogs; for Problem solving test scores (sum of FST and PST test), individual patient: treated group, one line per patient 1-7, Hydrochloride. As to the method: as §1
FST and PST were performed on each dog included in the study. The design of these tests was based on previously published tests for canine cognitive dysfunction (González-Martinez A. et al. Vet. J. 2013, 198, 176-181). The cognitive tests were evaluated by the same veterinarian. Dogs were tested in the morning after at least 10 hours of the fasting period.
This test was based on testing the dog's ability to find hidden food. The dog was seated in the middle of the room while being on the leash. […] While maintaining visual contact with the dog and still communicating with the dog, showing the food, the veterinarian than moved backward and placed the food in the corner of the room. The veterinarian than stared at the food and pointed to it with his hand for 2-3 s to increase the dog's visual processing. The owner was then asked to leave the room with the dog and wait outside for 15 s. After returning to the room, the dog was placed into the center of the room unleashed and allowed to freely explore the room for 1 minute. No verbal or other clues were allowed. The procedure was repeated twice. […] The FST total score was the average of both runs.
In this test, the ability of the dog to obtain the food by manipulating an object was assessed. […] After that, the food was placed on the floor in front of the dog and covered with a transparent plastic box that had been turned upside down. The dog was given 2 minutes to find a way to remove the box and get the food. […]
Results are presented as mean+SD. […] CADES score and results from behavioral tests were analyzed by repeated measures ANOVA with treatment as the independent variable and clinical test (before the treatment, 3 months, and 6 months after the treatment) as within factor. […]

Data set [3] has the same test system. The experiment in a line: Side effects during treatment of dogs with cognitive dysfunction. On the procedure:
as §1
Owners were observing their dog's health status daily during the duration of the study. In case of any serious or abnormal observations, they had to contact the participating veterinarian. […] Dogs were monitored during examinations. […]

[4] abbreviates: treated group, after three months.

Several values for one entry are separate records, joined by “and”; a condition that tells them apart may be missing. Identical values can stand only once.

For the compound `COCCN(CC1CCCN(Cc2ccccc2)C1)S(=O)(=O)c1ccc2ccccc2c1.Cl` (racemic) [(±)-N-((1-Benzylpiperidin-3-Yl)Methyl)-N-(2-Methoxyethyl)Naphthalene-2-Sulfonamide Hydrochloride], the “Observed change in cognitive abilities” value in data set [1] (all treated dogs, six-month study) is “improved memory, cognitive functions, and learning abilities”. The “Average CADES score” value was 12.6+/−3.0 in data set [1] (after six months, untreated (2 remaining dogs) 80.5) and 17.1+/−10.6 in data set [1] (after three months, baseline 39+/−16.4, untreated 64.0+/−12.8). The “Cognitive state according to CADES” value in data set [1] (treated group, after six months) was “all dogs showed moderate cognitive impairment with low CADES score”. Besides, in data set [1] (setting [4]), the “Dogs showing moderate cognitive impairment (two affected domains)” value was determined as 85.7%. For the same compound, the “Dogs showing severe cognitive impairment (three affected domains)” value in data set [1] (setting [4]) came out at 14.3%. Further, the Survival result in data set [1] (treated group, six-month study, 5 of 7 untreated dogs euthanized) is given as “all dogs included stayed alive throughout the study”. For the same compound, the “Problem solving score (sum of FST and PST), group mean” value in data set [2] (after six months) is 2.7+/−1.0; in data set [2] (after three months, baseline 5.3+/−1.4, untreated 7.6+/−1), 3.1+/−1.1. Further, the “Problem solving test scores (sum of FST and PST test), individual patient” value in data set [2] (after six months) is 2 (4×) and 3 and 4 (2×); in data set [2] (after three months), 4 (4×) and 2 (3×). Besides, the Side effects result in data set [3] (dogs with moderate cognitive impairment, 6 months of treatment) is “without any noticeable side effects”; in data set [3] (dogs with severe cognitive impairment (3 dogs), treatment stopped), “signs of gastrointestinal problems with vomiting and diarrhea”.
